Patent publication US10493077B2, “Fused imidazo-piperidine JAK inhibitor compound” (THERAVANCE BIOPHARMA R&D IP, LLC, priority 2017, dated 2019)
Like-named read-outs stand apart in the source and are kept apart here.

Tests used:
[1] = biological target: T1, CDK9 (Homo sapiens, UniProt P50750); assay: Kinome screen, CDK9; format: binding; conditions: screened at 1 μM
T1 construct: made in house; host or cells: T7 phage in E. coli (BL21-derived) or HEK-293
Experimental: (§1) Kinase-tagged T7 phage strains were grown in parallel in 24-well blocks in an E. coli host derived from the BL21 strain. E. coli were grown to log-phase and infected with T7 phage from a frozen stock (multiplicity of infection=0.4) and incubated with shaking at 32° C. until lysis (90-150 minutes). The lysates were centrifuged (6,000×g) and filtered (0.2 μm) to remove cell debris. The remaining kinases were produced in HEK-293 cells and subsequently tagged with DNA for qPCR detection.
(§2) Streptavidin-coated magnetic beads were treated with biotinylated small molecule ligands for 30 minutes at room temperature to generate affinity resins for kinase assays. The liganded beads were blocked with excess biotin and washed with blocking buffer (SeaBlock (Pierce), 1% BSA, 0.05% Tween 20, 1 mM DTT) to remove unbound ligand and to reduce non-specific phage binding. […] Test compounds were prepared as 40× stocks in 100% DMSO and directly diluted into the assay. All reactions were performed in polypropylene 384-well plates in a final volume of 0.04 ml. […] The beads were then re-suspended in elution buffer (1×PBS, 0.05% Tween 20, 0.5 μM non-biotinylated affinity ligand) and incubated at room temperature with shaking for 30 minutes. The kinase concentration in the eluates was measured by qPCR.

[2] = biological target: T2, SRC (Homo sapiens, UniProt P12931); assay: Kinome screen, SRC; format: binding; conditions: screened at 1 μM
T2 construct: made in house; host or cells: T7 phage in E. coli (BL21-derived) or HEK-293
Experimental: as §1, §2

[3] = biological target: T3, SYK (Homo sapiens, UniProt P43405); assay: Kinome screen, SYK; format: binding; conditions: screened at 1 μM
T3 construct: made in house; host or cells: T7 phage in E. coli (BL21-derived) or HEK-293
Experimental: as §1, §2

[4] = biological target: T4, JAK2 (Homo sapiens, UniProt O60674); assay: LanthaScreen JAK biochemical assay, JAK2; conditions: read-out: JAK 2 pKi (converted)
T4 construct: GST; purchased Life Technologies
Experimental: (§3) A panel of four LanthaScreen JAK biochemical assays (JAK1, 2, 3 and Tyk2) were carried in a common kinase reaction buffer (50 mM HEPES, pH 7.5, 0.01% Brij-35, 10 mM MgCl2, and 1 mM EGTA). Recombinant GST-tagged JAK enzymes and a GFP-tagged STAT1 peptide substrate were obtained from Life Technologies.
(§4) Serially diluted compound was pre-incubated with each of the four JAK enzymes and the substrate in white 384-well microplates (Corning) at ambient temperature for 1 h. ATP was subsequently added to initiate the kinase reactions in 10 μL total volume, with 1% DMSO. […] The plates were allowed to incubate at ambient temperature for 1 h before being read on the EnVision reader (Perkin Elmer). Emission ratio signals (520 nm/495 nm) were recorded and utilized to calculate the percent inhibition values based on DMSO and background controls.
(§5) For dose-response analysis, percent inhibition data were plotted vs. compound concentrations, and IC50 values were determined from a 4-parameter robust fit model with the Prism software (GraphPad Software). Results were expressed as pIC50 (negative logarithm of IC50) and subsequently converted to pKi (negative logarithm of dissociation constant, Ki) using the Cheng-Prusoff equation.

[5] = biological target: T5, SLK (Homo sapiens, UniProt Q9H2G2); assay: Kinome screen, SLK; format: binding; conditions: screened at 1 μM
T5 construct: made in house; host or cells: T7 phage in E. coli (BL21-derived) or HEK-293
Experimental: as §1, §2

[6] = biological target: T6, JAK1 (Homo sapiens, UniProt P23458); assay: LanthaScreen JAK biochemical assay, JAK1; conditions: read-out: JAK 1 pKi (converted)
T6 construct: GST; purchased Life Technologies
Experimental: as §3, §4, §5

[7] = biological target: T7, ALK (Homo sapiens, UniProt Q9UM73); assay: Kinome screen, ALK; format: binding; conditions: screened at 1 μM
T7 construct: made in house; host or cells: T7 phage in E. coli (BL21-derived) or HEK-293
Experimental: as §1, §2

[8] = biological target: T8, CDK7 (Homo sapiens, UniProt P50613); assay: Kinome screen, CDK7; format: binding; conditions: screened at 1 μM
T8 construct: made in house; host or cells: T7 phage in E. coli (BL21-derived) or HEK-293
Experimental: as §1, §2

[9] = biological target: T9, VEGFR2 (Homo sapiens, UniProt P35968); assay: Kinome screen, VEGFR2; format: binding; conditions: screened at 1 μM
T9 construct: made in house; host or cells: T7 phage in E. coli (BL21-derived) or HEK-293
Experimental: as §1, §2

[10] = biological target: T10, PAK4 (Homo sapiens, UniProt O96013); assay: Kinome screen, PAK4; format: binding; conditions: screened at 1 μM
T10 construct: made in house; host or cells: T7 phage in E. coli (BL21-derived) or HEK-293
Experimental: as §1, §2

[11] = tested on: IL-13 induced STAT6 phosphorylation in BEAS-2B human lung epithelial cells; assay: Cellular JAK potency assay: inhibition of IL-13 (AlphaScreen, BEAS-2B); format: cell-based
Experimental: The AlphaScreen JAK1 cellular potency assay was carried out by measuring interleukin-13 (IL-13, R&D Systems) induced STAT6 phosphorylation in BEAS-2B human lung epithelial cells (ATCC). The anti-STAT6 antibody (Cell Signaling Technologies) was conjugated to AlphaScreen acceptor beads (Perkin Elmer), while the anti-pSTAT6 (pTyr641) antibody (Cell Signaling Technologies) was biotinylated using EZ-Link Sulfo-NHS-Biotin (Thermo Scientific).
BEAS-2B cells were grown at 37° C. in a 5% CO2 humidified incubator in 50% DMEM/50% F-12 medium (Life Technologies) supplemented with 10% FBS (Hyclone), 100 U/mL penicillin, 100 μg/mL streptomycin (Life Technologies), and 2 mM GlutaMAX (Life Technologies). On day 1 of the assay, cells were seeded at a 7,500 cells/well density in white poly-D-lysine-coated 384-well plates (Corning) with 25 μL medium, and were allowed to adhere overnight in the incubator. […] After a minimum of 2 h incubation, the assay plates were read on the EnVision plate reader. AlphaScreen luminescence signals were recorded and utilized to calculate the percent inhibition values based on DMSO and background controls.
For dose-response analysis, percent inhibition data were plotted vs. compound concentrations, and IC50 values were determined from a 4-parameter robust fit model with the Prism software. Results may also be expressed as the negative logarithm of the IC50 value, pIC50.

T2 sequence (P12931 whole entry): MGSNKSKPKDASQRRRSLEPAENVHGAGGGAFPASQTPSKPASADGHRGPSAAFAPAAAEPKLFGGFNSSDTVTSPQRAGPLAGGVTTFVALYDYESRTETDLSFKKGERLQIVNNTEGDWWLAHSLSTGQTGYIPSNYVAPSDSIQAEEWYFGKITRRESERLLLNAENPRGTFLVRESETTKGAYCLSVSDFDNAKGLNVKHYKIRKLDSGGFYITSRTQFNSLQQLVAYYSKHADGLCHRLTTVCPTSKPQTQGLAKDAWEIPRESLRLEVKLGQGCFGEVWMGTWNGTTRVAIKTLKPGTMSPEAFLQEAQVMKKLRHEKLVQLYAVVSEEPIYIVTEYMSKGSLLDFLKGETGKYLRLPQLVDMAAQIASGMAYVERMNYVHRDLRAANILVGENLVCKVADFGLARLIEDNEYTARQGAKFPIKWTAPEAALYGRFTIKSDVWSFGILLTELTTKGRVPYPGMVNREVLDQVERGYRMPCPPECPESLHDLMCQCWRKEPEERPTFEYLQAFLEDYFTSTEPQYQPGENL
T9 sequence (P35968 20-1356): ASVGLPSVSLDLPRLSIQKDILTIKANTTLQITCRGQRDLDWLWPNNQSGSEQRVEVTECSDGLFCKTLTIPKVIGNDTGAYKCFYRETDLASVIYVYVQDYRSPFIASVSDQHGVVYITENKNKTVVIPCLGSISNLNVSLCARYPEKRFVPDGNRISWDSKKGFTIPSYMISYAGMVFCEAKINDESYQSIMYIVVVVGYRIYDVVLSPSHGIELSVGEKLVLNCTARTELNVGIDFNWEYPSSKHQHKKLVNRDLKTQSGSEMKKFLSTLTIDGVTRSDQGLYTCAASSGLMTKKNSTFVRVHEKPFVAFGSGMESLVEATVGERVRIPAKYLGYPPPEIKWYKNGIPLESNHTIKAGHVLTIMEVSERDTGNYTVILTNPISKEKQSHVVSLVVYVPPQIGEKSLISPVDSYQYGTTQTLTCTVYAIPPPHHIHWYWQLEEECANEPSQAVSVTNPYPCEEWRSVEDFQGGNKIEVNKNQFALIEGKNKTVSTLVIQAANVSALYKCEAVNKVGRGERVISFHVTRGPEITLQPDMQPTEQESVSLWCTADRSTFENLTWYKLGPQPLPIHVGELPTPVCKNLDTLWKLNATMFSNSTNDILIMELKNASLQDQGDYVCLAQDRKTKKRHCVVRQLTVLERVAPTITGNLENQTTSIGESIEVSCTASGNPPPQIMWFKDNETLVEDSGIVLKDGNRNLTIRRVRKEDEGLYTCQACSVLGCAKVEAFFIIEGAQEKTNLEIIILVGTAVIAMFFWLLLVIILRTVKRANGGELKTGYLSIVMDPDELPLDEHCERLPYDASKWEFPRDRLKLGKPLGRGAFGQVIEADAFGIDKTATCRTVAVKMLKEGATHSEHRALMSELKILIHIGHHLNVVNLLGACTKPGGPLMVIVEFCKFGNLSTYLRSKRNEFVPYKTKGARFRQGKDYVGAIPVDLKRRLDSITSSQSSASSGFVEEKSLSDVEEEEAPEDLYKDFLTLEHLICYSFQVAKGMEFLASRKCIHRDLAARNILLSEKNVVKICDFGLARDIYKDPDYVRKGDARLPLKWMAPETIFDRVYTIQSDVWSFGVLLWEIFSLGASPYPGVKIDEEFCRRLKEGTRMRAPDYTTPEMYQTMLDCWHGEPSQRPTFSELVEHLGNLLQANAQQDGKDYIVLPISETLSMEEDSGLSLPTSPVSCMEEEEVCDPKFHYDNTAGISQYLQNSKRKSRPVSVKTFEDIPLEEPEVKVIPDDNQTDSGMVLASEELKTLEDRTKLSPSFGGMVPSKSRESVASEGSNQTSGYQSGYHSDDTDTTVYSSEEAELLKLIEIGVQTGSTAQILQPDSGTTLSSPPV
T8 sequence (P50613 whole entry): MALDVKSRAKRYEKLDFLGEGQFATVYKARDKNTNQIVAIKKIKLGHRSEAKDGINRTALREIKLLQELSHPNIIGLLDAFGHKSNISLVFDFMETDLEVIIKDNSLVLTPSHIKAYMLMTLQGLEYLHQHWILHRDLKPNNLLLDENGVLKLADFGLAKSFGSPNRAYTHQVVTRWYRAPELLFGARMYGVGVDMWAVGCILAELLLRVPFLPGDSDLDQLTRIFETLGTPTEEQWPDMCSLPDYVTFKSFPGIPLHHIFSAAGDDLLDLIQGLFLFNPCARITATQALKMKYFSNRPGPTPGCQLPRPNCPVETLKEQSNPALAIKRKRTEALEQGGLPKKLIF
T5 sequence (Q9H2G2 whole entry): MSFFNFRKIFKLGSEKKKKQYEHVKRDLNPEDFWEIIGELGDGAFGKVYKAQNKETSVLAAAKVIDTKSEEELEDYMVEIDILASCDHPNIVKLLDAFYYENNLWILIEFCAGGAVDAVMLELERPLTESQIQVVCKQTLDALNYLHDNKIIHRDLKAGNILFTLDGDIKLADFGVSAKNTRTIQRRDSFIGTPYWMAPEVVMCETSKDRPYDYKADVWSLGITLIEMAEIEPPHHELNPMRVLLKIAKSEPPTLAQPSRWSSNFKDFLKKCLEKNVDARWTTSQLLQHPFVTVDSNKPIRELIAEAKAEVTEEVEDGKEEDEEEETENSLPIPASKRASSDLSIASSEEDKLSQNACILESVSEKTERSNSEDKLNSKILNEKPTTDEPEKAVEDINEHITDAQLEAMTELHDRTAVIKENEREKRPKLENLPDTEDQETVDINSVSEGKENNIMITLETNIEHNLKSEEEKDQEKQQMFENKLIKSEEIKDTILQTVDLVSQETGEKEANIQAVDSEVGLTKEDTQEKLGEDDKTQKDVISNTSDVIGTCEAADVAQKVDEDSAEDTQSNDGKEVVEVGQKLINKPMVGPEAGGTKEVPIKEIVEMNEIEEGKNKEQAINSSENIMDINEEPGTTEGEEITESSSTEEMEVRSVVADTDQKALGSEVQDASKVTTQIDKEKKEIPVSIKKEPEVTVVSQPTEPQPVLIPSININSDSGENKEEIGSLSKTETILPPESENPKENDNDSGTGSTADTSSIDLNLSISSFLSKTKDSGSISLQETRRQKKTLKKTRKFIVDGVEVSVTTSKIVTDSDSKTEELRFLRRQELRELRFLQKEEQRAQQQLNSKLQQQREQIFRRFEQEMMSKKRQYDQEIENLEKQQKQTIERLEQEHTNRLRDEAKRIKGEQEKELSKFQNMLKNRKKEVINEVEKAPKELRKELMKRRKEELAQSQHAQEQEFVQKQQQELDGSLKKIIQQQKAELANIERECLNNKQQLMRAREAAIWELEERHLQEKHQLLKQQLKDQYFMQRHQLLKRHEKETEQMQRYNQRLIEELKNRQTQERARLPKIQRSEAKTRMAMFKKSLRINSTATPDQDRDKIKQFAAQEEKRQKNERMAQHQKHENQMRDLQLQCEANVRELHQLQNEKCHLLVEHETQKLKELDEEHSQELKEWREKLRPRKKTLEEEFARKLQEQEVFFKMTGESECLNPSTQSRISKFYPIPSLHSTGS
T1 sequence (P50750 whole entry): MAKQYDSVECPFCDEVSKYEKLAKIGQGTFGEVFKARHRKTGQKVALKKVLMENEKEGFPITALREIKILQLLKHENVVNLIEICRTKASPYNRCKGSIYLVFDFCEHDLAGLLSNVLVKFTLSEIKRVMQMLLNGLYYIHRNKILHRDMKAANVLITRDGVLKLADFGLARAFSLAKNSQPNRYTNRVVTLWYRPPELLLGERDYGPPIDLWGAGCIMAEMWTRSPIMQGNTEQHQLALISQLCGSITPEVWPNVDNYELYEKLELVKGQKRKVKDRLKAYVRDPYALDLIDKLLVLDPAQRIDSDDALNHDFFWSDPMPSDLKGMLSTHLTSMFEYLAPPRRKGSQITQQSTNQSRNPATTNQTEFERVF
T10 sequence (O96013 whole entry): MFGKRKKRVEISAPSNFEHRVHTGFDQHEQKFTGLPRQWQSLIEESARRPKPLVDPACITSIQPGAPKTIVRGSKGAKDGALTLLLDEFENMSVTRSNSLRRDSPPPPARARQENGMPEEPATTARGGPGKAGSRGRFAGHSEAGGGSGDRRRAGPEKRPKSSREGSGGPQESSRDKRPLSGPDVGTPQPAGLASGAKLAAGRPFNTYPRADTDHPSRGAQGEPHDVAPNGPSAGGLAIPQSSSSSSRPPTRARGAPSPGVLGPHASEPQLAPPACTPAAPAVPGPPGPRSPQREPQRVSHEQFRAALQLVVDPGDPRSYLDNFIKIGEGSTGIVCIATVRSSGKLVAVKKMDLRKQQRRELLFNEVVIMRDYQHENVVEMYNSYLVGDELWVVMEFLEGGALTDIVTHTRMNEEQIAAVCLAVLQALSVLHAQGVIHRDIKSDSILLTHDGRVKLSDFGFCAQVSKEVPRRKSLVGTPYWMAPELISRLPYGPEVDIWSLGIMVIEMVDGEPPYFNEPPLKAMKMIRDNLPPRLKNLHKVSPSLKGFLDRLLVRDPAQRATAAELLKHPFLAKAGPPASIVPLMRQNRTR

CCc1cc(O)c(F)cc1-c1cc(F)c2c(-c3nc4c([nH]3)CCN(C(=O)CN3CCOCC3)C4)n[nH]c2c1 [Compound 1, 1-(2-(6-(2-ethyl-5-fluoro-4-hydroxyphenyl)-4-fluoro-1H-indazol-3-yl)-1,4,6,7-tetrahydro-5H-imidazo[4,5-c]pyridin-5-yl)-2-morpholinoethan-1-one] showed an inhibition at 1 µM [1] of 9%, an inhibition at 1 µM [2] of 93% and an inhibition at 1 µM [3] of 46%. It also gave a Ki [4] of 0.0251 nM, an inhibition at 1 µM [5] of 100% and a Ki [6] of 0.1 nM. The inhibition at 1 µM [7] was 75%, the inhibition at 1 µM [8] was 74% and the inhibition at 1 µM [9] was 42%. For the same compound, the inhibition at 1 µM [10] was 93%, the IC50 ([11]; Assay 2, BEAS-2B cells, read-out: IC50 for inhibition of IL-13) was 13 nM and the IC50 ([11]; BEAS-2B cells, read-out: pIC50, inhibition of IL-13 induced STAT6 phosphorylation (converted)) was 12.6 nM.
